Point of comparison: `CCCCCCCCOc1ccc(-c2ccc(C3CCC(CCC)C3)cc2)cc1` (stereo not given), melting point 84 °C. Against it:
- CCOC(=O)C1=C(CCCc2ccccc2)NC(C)=C(C(=O)OC)C1c1cccc([N+](=O)[O-])c1 (stereo not given) — higher, 125 to 127 °C
- Cc1ccc2c(c1)C(c1ccccc1)CC(NC(=O)Nc1cccc(Cl)c1)C(=O)N2CC(=O)NC(C)(C)C (stereo not given) — higher, 282 to 285 °C
- CS(=O)(=O)Nc1ccc2c(c1)c(C(=O)C(=O)NC1=CC(=O)OC1)cn2Cc1ccc(C(F)(F)F)cc1 — higher, 267 to 269 °C
- O=C1CCSC(=S)N1c1ccccn1 — higher, 157 °C
- CCOC(=O)c1ccc(NC(=O)C(c2ccc(Cl)cc2)c2ccc(Cl)cc2)cc1 — higher, 171 to 172 °C
- CCNS(=O)(=O)c1cccc(NC(=O)c2cnn3c(C(F)(F)F)cc(-c4ccc(C(F)(F)F)cc4)nc23)c1 — higher, 207 °C
- COc1ccc2nc3cc(C(=O)O)ccn3c(=O)c2c1 — higher, 323 to 327 °C
- NC(=S)c1c(Cl)cncc1Cl — higher, 186 to 187 °C
- O=C(OCC(O)CO)c1ccc(C=Cc2csc3ccccc23)s1 (stereo not given) — higher, 102 to 104 °C
- CC(C)(C)OC(=O)N1CCN(Cc2ccc([N+](=O)[O-])cc2)CC1 — higher, 99 to 100 °C
- Cc1ccc(-n2nc(N3CCN(C(N)=O)CC3)c3ccccc32)cc1 — higher, 146 to 148 °C
- COC(=O)[C@@H]1O[C@H]1c1ccc(OC)cc1 — higher, 86 to 87 °C
- Cc1cc(-n2c(Cl)cnc2C)cc2ccc(=O)[nH]c12 — higher, 258 to 261 °C
- NC(=O)N(O)Cc1ccc(C(O)C#Cc2cccc(Cl)c2)cc1 (stereo not given) — higher, 118 to 119 °C
- O=C1N(CC(F)(F)F)C(=NCc2ccc(OC(F)(F)F)cc2)SCN1c1ccccc1 — not separable, 84 to 87 °C
- CC(C)C1=NC2=NC(SCc3ccccc3)(SCc3ccccc3)NN2C=C1 — lower, 65 to 66 °C
- CCCOc1ccccc1-c1nc2nc(NCCCO)ncc2c(=O)[nH]1 — higher, 185 to 186 °C
- N#CN=C(Nc1cccnc1)NC(NC(=O)c1cccc(Cl)c1)C(F)(F)C(F)(F)F (stereo not given) — higher, 183 to 185 °C
- CN[C@@H]1COc2cc(Cl)cc(-c3ccccc3C)c2O1 — higher, > 245 °C
- CC(=O)OCC(C(=O)OC(C)(C)C)C(=O)c1ccccc1 (stereo not given) — lower, 72 to 74 °C
- CCOC(=O)C1=C(COC)NC(COC)=C(C(=O)OCC)C1c1ccc(SC)cc1 — higher, 136 to 138 °C
- CNC(=O)c1c(C)c([N+](=O)[O-])cc2nc(OC)c(OC)nc12 — higher, 205 to 206 °C
- O=C(O)CCc1ccc2c(c1)C(=O)c1ccccc1CO2 — higher, 128 to 130 °C
- CN1CCN(C(=O)CN2CCN(C(=O)c3cc(C(F)(F)F)cc(C(F)(F)F)c3)[C@H](Cc3c[nH]c4ccccc34)C2)CC1 — higher, 105 to 108 °C
- O=c1ccn(-c2cccc(Cl)c2)nc1-c1ccnn1-c1ccccc1 — higher, 146 to 147 °C
- N#CNC(=NC1CCN(Cc2ccccc2)CC1)NC1Cc2ccccc2C1 — higher, 138 to 140 °C
- O=C(NCCO)c1cccc(-c2cccc3nc(C(O)c4cccc(C(F)(F)F)c4)cn23)c1 (stereo not given) — higher, 169 °C
- CC(C)CC1(C(CCN2C(=O)c3c(F)ccc(F)c3C2=O)C(=O)NO)CCN(CCc2ccccc2)C1=O (stereo not given) — higher, 131 to 132 °C
- CN(C)C1(c2ccccc2)CCC(CNC(=O)N2CC=C(c3c[nH]c4ccccc34)CC2)CC1 (stereo not given) — higher, 112 to 115 °C
- CCN(CC)C(=O)n1ccc(Sc2ccc(Cl)cc2Cl)n1 — higher, 96 to 97 °C
- O=C1c2ccc(C#Cc3cccc4ccccc34)cc2C(=O)N1c1ccccc1 — higher, 176 to 178 °C
- COC1C(=O)NC=C1Cl (stereo not given) — higher, 96 to 98 °C
- O=c1[nH]c2ncc(-c3ccc(-c4n[nH]c(C(F)(F)F)n4)cc3)nc2n1CC1CCCCC1 — higher, 303 to 305 °C
- CCCc1nn(Cc2ccc(OCc3nc(-c4ccccc4)oc3C)cc2)cc1CCC(=O)O — higher, 153 to 154 °C
- COc1cc(Nc2c(C#N)cnc3cc(-c4ccc(CN5CCN(C)CC5)cc4)sc23)cc(OC)c1OC — higher, 189 to 191 °C
- CCCC[C@]12OC1CC[C@]1(C)CC[C@@H]3C[C@@]12OC3(C)C (stereo not given in full) — lower, 70 to 72 °C
- Cc1cc(OCc2cnc(-c3cccc(C(F)(F)F)c3)nc2C2CC2)ccc1OC(C)(C)C(=O)O — higher, 175 to 176 °C
- O=C(c1cccs1)c1cccnc1N1CCCC1=O — higher, 148 to 150 °C
- O=C1N(Cc2ccc(OC(F)(F)F)cc2)C(=NCC(F)(F)F)SCN1c1ccccc1 — lower, 54 to 56 °C
- Cc1nnc(-c2ccc3occ(-c4ccc(C(=O)O)cc4)c3c2)o1 — higher, > 300 °C
- Cc1cc(Cl)n2nc(SCc3ccccc3)nc2c1 — higher, 108 to 110 °C
- O=c1cc(-c2ccccc2F)oc2ccccc12 — higher, 98 to 100 °C
- Nc1cccc2c1CN(c1c(F)cc3c(=O)c(C(=O)O)cn(-c4ccc(F)cc4)c3c1F)C2 — higher, 269 to 274 °C
- Cc1c(Cl)ccc(S(=O)(=O)Cl)c1C#N — lower, 69 to 72 °C
- O=C(CCCOc1ccc2nc3[nH]c(=O)[nH]c3cc2c1)N1CCN(c2ccccc2)CC1 — higher, 277 to 279 °C
- O=C(O)CCC(=O)c1ccc2c(c1)CNC(=O)N2 — higher, 176 to 180 °C
- COC(=O)CCC/C=C(\c1cc(F)cc(C(F)(F)F)c1)c1cc(C)c2on(C)c(=O)c2c1 — higher, 97.5 to 98.5 °C
- CCOCc1nc2c(N)nc3cc(OCCCCCCNC(C)=O)ccc3c2n1CC(C)(C)NS(C)(=O)=O — higher, 169 to 171 °C
- O=c1cc(C(F)(F)F)ccn1-c1c(Cl)cc(CO)cc1Cl — higher, 151 to 152 °C
- CCOC(=O)COc1ccc(C(=O)Nc2ccccc2S(=O)(=O)c2ccccc2C#N)cc1 — higher, 131 to 132 °C
- Cc1c(-c2cc(C(F)(F)F)cc(C(F)(F)F)c2)ccc2nc(N=CN(C)C)nc(N=CN(C)C)c12 — higher, 208 to 210 °C
- NS(=O)(=O)c1cccc(-c2cccc(-c3nc(-c4ccc(Cl)c(Cl)c4)cc(C(F)(F)F)n3)c2)c1 — higher, 241 °C
- COC(=O)c1ccccc1S(=O)(=O)NC(=O)Nc1nc(F)cc(OC(F)(F)F)n1 — higher, 157 to 161 °C
- COc1cc(Nc2nc3cccc(-c4cccc(CNC(C)=O)c4)c3o2)cc(OC)c1OC — higher, 203 to 204 °C
- Cc1cc(NC2=NCCN2)n(-c2ccc(F)cc2)n1 — higher, 213 to 215 °C
- CCCc1c(O)ccc2c(=O)cc(C(=O)OCC)oc12 — higher, 155 to 162 °C
- COC(=O)C1CC(=O)N(c2cc(C(F)(F)F)cc(C(F)(F)F)c2)C1 (stereo not given) — lower, 68 to 70 °C
- CSc1c(C(=O)O)ccc(Cl)c1F — higher, 150 °C
- O=C1N=C(N2CCOCC2)SC1=Cc1cc(-c2ccc(O)c(C34CC5CC(CC(C5)C3)C4)c2)c(O)cc1O — higher, 306 to 310 °C
- Cn1cc2c(n1)-c1cnn(C)c1CC2(C)C — higher, 172 to 173 °C
- Nc1nc(-c2ccc(CCN3CCN(c4cccc(C(F)(F)F)c4)CC3)cc2)cs1 — higher, 274 to 277 °C
- O=C(CCCN1C(=O)c2ccccc2C1=O)Nc1nnc(SCc2ccccc2)s1 — higher, 128 to 131 °C
- CCOC(=O)c1cn(CC)c2nc(C)ccc2c1=O — higher, 122 to 123 °C
- COc1ccc(CC(=O)N2CCn3c(c(C(N)=O)c(Cl)c3-c3ccccc3)C2)cc1 — higher, 146 to 148 °C
- Fc1ccc(C(OP2OCCO2)(c2ccc(F)cc2)c2ccccc2F)cc1 — higher, 163 to 164 °C
- CCOc1ccc(F)cc1NC(=O)Nc1ccc(N2CCN(C(=O)OC(C)(C)C)CC2)cc1 — higher, 168 to 169 °C
- COc1ccc(C(=O)N2c3ccccc3C(n3c4ccccc4c4ccccc43)CC2COCc2ccccc2)cc1OC (stereo not given) — higher, 203 to 204 °C
- CN(C)CCOc1ccc(/C=C/C(=O)N2CC(CCl)c3c2cc(OCc2ccccc2)c2ncccc32)cc1 (stereo not given) — higher, 172 to 175 °C
- CNc1nc(N)nc2c1nnn2Cc1ccccc1F — higher, 252 to 254 °C
- CCNC(C)CCC1(C(N)=O)c2ccccc2-c2ccccc21 (stereo not given) — higher, 180 to 182 °C
- O=c1cnc(-c2c(F)cccc2F)n[nH]1 — higher, 219 to 226 °C
- Cc1ccc(C(NC(N)=S)c2ccccc2)cc1 (stereo not given) — higher, 167 to 168 °C
- N#CCCNC(=O)c1cccc(-c2cccc3nc(Cc4cccc(C(F)(F)F)c4)cn23)c1 — higher, 192 to 193 °C
- CC(C)Nc1nc2c(F)c(Cl)c(Cl)cc2[nH]1 — higher, 212 to 215 °C
- O=C1Nc2ccc(C(F)(C(F)(F)F)C(F)(F)F)cc2CN1NCc1cccnc1 — higher, 159 to 161 °C
- CC(=O)Nc1ccc(C2=NNC(=O)NC2C)cc1Cl (stereo not given) — higher, 250 to 252 °C
- CN(C)CC1CN(c2ccccc2)NC1=O (stereo not given) — higher, 118 to 119 °C
- CCN1CCCC1CNC(=O)c1cc(NS(N)(=O)=O)c(C)cc1OC (stereo not given) — higher, 140 to 141 °C
- O=C(Nc1nc(C(F)(F)F)co1)C1c2ccccc2Oc2c(Cl)cccc21 (racemic) — higher, 212 °C
- COc1ccc(N2CCN(c3c(C)c(C)c4c(c3C)C(OCc3ccc(C(=O)O)cc3)C(C)(C)O4)CC2)cc1 (stereo not given) — higher, 162 to 163 °C
- O=C(O)c1ccc(Cn2cnc3ccc(Cl)c(C(=O)O)c32)cc1 — higher, 291 to 292 °C
- COc1ccc2cccc(C=O)c2c1 — lower, 61 to 63 °C
- O=C1CN(c2cccc(Cl)c2)C(=O)N1S(=O)(=O)c1ccc2ccccc2c1 — higher, 194 to 198 °C
- O=C(O)COc1cccc(-c2n[nH]c3c2Cc2ccccc2-3)c1 — higher, 246 to 248 °C
- Cc1nc2n(c(=O)c1CCN1CCC(C(=O)c3ccc(F)cc3)CC1)CCS2 — higher, 166 °C
- CC(C)[C@H]1COC(=O)N1C(=O)[C@H](C)CC(=O)OC(C)(C)C — lower, 64 to 65 °C
- CC1(C)CCCN(C(=O)[C@H]2C[C@@H](S(=O)(=O)c3ccccc3)[C@@H](c3ccccc3F)N2C(=O)CNC(=O)Nc2cccc(C(=O)O)c2)C1 (racemic) — higher, 258 °C
- CC#CCOc1ccc(S(=O)(=O)NC(C(=O)O)c2ccc(OCCN3CCCC3)cc2)cc1 (stereo not given) — higher, 245 to 247 °C
- O=C(NC(Cc1c[nH]c2ccccc12)C(=O)C(=O)CCl)OC1C2CC3CC(C2)CC1C3 (stereo not given) — lower, 56 to 63 °C
- O=C(O)[C@H](Cc1ccc(C(F)(F)F)cc1)[C@@H](O)c1ccoc1 (racemic) — higher, 104 to 105 °C
- CCC1(C)C(=O)N=C(SCc2ccccc2N(C)C)N1C(C)=O (stereo not given) — not separable, 83 to 85 °C
- CC(C)C[C@H](NC(=O)OC(C)(C)C)[C@@H]1CCC(=O)O1 — lower, 75 to 77 °C
- C=CCc1c([N+](=O)[O-])ccc2c1OC(CO)CO2 (stereo not given) — lower, 67 °C
- COc1cc(C2NCCS2)ccc1O (stereo not given) — higher, 158 to 161 °C

From a melting point compilation (Tetko et al.; mined from patent text by program, amines drawn as free bases though some values may be those of a salt)
